This passage reports IC50 results from US20260258064A1 (SIRONAX LTD., priority 2023, published 2026).

The target of the assay is T1, SARM1 (50-724) (Homo sapiens, UniProt Q6SZW1).
T1 construct: Purified SARM1 (50-724) with a final concentration of 2 nM was pre-incubated with a test compound
T1 sequence (Q6SZW1 50-724): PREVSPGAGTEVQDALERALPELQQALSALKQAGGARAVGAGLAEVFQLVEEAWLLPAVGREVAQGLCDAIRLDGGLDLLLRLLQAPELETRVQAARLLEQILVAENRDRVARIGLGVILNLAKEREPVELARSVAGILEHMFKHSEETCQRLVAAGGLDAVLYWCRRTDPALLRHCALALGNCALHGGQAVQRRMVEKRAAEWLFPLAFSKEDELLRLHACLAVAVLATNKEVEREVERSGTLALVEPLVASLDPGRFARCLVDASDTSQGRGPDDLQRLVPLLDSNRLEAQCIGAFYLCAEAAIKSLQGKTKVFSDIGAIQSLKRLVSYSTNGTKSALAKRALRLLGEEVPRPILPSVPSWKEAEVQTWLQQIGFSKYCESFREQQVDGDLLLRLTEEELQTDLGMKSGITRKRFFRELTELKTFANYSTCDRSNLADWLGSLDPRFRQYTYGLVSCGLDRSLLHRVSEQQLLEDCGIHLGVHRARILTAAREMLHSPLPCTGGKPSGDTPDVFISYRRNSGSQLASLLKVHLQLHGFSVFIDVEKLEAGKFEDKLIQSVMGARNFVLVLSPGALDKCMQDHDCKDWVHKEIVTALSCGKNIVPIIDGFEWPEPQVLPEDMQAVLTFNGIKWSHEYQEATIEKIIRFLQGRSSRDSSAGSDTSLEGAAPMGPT
In words: SARM1 (50-724) enzymatic assay (LC-MS/MS). In kind it is biochemical. The settings on record: Purified SARM1 (50-724) 2 nM, NMN as activator, NAD+ as substrate, 1 h at room temperature, read-out: IC50 (SARM1 inhibitory activity). The method in brief:
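Reaction buffer was Dulbecco's PBS. Compound and 2 nM human SARM1 (50-724) were pre-incubated 15 min at room temperature, then […] NAD^+ and 200 µM NMN activator were added for 1 h at room temperature. Acetonitrile (70%) stop, LC-MS/MS read-out, IC50 values.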
For `CC1(C)CC1c1cc(F)c2[nH]c(-c3nncn3-c3cnccc3C(F)(F)F)nc2c1` (centres unmarked) [Compound 347, 5-(2,2-dimethylcyclopropyl)-7-fluoro-2-(4-(4-(trifluoromethyl)pyridin-3-yl)-4H-1,2,4-triazol-3-yl)-1H-benzo[d]imidazole], the IC50 is at most 100 nM.
On to `CC(C)(C)c1ccc2[nH]c(-c3nncn3-c3cnccc3C(F)(F)F)cc2n1` [Compound 348, 5-(tert-butyl)-2-(4-(4-(trifluoromethyl)pyridin-3-yl)-4H-1,2,4-triazol-3-yl)-1H-pyrrolo[3,2-b]pyridine], for which the IC50 was at most 100 nM.
With `FC(F)(F)c1ccncc1-n1cnnc1-c1nc2cc(C3CCOCC3)ccc2[nH]1` [Compound 352, 5-tetrahydropyran-4-yl-2-[4-[4-(trifluoromethyl)-3-pyridyl]-1,2,4-triazol-3-yl]-1H-benzimidazole] the figure was 100 to 500 nM.
With `Cn1cc(OC(F)(F)F)c(-n2cnnc2-c2nc3cc(C4CC4)cc(F)c3[nH]2)cc1=O` [Compound 353, 4-(3-(5-cyclopropyl-7-fluoro-1H-benzo[d]imidazol-2-yl)-4H-1,2,4-triazol-4-yl)-1-methyl-5-(trifluoromethoxy)pyridin-2(1H)-one], the IC50 is at most 100 nM.
Turning to `Cn1cc(OC(F)(F)F)c(-n2cnnc2-c2nc3c(F)c(C4CC4)ccc3[nH]2)cc1=O` [Compound 354, 4-(3-(5-cyclopropyl-4-fluoro-1H-benzo[d]imidazol-2-yl)-4H-1,2,4-triazol-4-yl)-1-methyl-5-(trifluoromethoxy)pyridin-2(1H)-one], the IC50 was at most 100 nM.
In the case of `CC(Oc1cc(F)c2[nH]c(-c3nncn3-c3cnccc3C(F)(F)F)nc2c1)C(F)(F)F` (centres unmarked) [Compound 355, 7-fluoro-2-(4-(4-(trifluoromethyl)pyridin-3-yl)-4H-1,2,4-triazol-3-yl)-5-((1,1,1-trifluoropropan-2-yl)oxy)-1H-benzo[d]imidazole], the IC50 was at most 100 nM.
For the compound `FC(F)(F)c1cnc2[nH]c(-c3nncn3-c3cnccc3C(F)(F)F)cc2n1` [Compound 356, 2-(trifluoromethyl)-6-(4-(4-(trifluoromethyl)pyridin-3-yl)-4H-1,2,4-triazol-3-yl)-5H-pyrrolo[2,3-b]pyrazine], the IC50 was at most 100 nM.
As to `FC(F)(F)c1ccncc1-n1cnnc1-c1nc2c(N3CC4(COC4)C3)c(Cl)ccc2[nH]1` [Compound 357, 6-(5-chloro-2-(4-(4-(trifluoromethyl)pyridin-3-yl)-4H-1,2,4-triazol-3-yl)-1H-benzo[d]imidazol-4-yl)-2-oxa-6-azaspiro[3.3]heptane], the IC50 was above 1000 nM.
For `FC1(F)CN(c2c(Cl)ccc3[nH]c(-c4nncn4-c4cnccc4C(F)(F)F)nc23)C1` [Compound 358, 5-chloro-4-(3,3-difluoroazetidin-1-yl)-2-(4-(4-(trifluoromethyl)pyridin-3-yl)-4H-1,2,4-triazol-3-yl)-1H-benzo[d]imidazole], the IC50 lay within 100 to 500 nM.
Regarding `[2H]c1nnc(-c2nc3cc(C4([2H])CC4)cc(F)c3[nH]2)n1-c1cnccc1C(F)(F)F` [Compound 359, 5-(cyclopropyl-1-d)-7-fluoro-2-(4-(4-(trifluoromethyl)pyridin-3-yl)-4H-1,2,4-triazol-3-yl-5-d)-1H-benzo[d]imidazole], the IC50 is at most 100 nM.
Take `Fc1cc(C2CC23CCOCC3)cc2nc(-c3nncn3-c3cnccc3C(F)(F)F)[nH]c12` (centres unmarked) [Compound 360, 7-fluoro-5-(6-oxaspiro[2.5]octan-2-yl)-2-[4-[4-(trifluoromethyl)-3-pyridyl]-1,2,4-triazol-3-yl]-1H-benzimidazole]: the IC50 is at most 100 nM.
In the case of `FC(F)(F)c1ccc2[nH]c(C3CSCCN3c3ccccc3)nc2c1` (centres unmarked) [Compound 361, 4-phenyl-3-[5-(trifluoromethyl)-1H-benzimidazol-2-yl]thiomorpholine], the IC50 is above 1000 nM.
With `FC(F)(F)c1ccncc1-n1cnnc1-c1nc2cc(C34COC(C3)C4)ccc2[nH]1` [Compound 362, 5-(2-oxabicyclo[2.1.1]hexan-4-yl)-2-[4-[4-(trifluoromethyl)-3-pyridyl]-1,2,4-triazol-3-yl]-1H-benzimidazole], the IC50 lay in the range of 100 to 500 nM.
The same measure for `FC(F)(F)c1ccc2[nH]c(C3COCCN3c3cccc(Cl)c3Cl)nc2c1` (centres unmarked) [Compound 363, 4-(2,3-dichlorophenyl)-3-[5-(trifluoromethyl)-1H-benzimidazol-2-yl]morpholine]: 500 to 1000 nM.
The same measure for `FC(F)(F)c1ccncc1-n1cnnc1-c1nc2cc(C3CCCC3)ccc2[nH]1` [Compound 364, 5-cyclopentyl-2-(4-(4-(trifluoromethyl)pyridin-3-yl)-4H-1,2,4-triazol-3-yl)-1H-benzo[d]imidazole]: at most 100 nM; for `CC(CN(C)C)c1ccc2[nH]c(-c3nncn3-c3cnccc3C(F)(F)F)nc2c1` (centres unmarked) [Compound 365]: above 1000 nM.
For the compound `FC(F)(F)c1ccc2[nH]c(-c3nncn3-c3cnccc3C(F)(F)F)c(C3CC3)c2c1` [Compound 366, 3-cyclopropyl-5-(trifluoromethyl)-2-(4-(4-(trifluoromethyl)pyridin-3-yl)-4H-1,2,4-triazol-3-yl)-1H-indole], the IC50 was at most 100 nM.
The same measure for `O=C1CCCN1c1c(-c2nncn2-c2cnccc2C(F)(F)F)[nH]c2ccc(C(F)(F)F)cc12` [Compound 367, 1-(5-(trifluoromethyl)-2-(4-(4-(trifluoromethyl)pyridin-3-yl)-4H-1,2,4-triazol-3-yl)-1H-indol-3-yl)pyrrolidin-2-one]: above 1000 nM.
On to `O=C1CN(c2nc3cc(C(F)(F)F)ccc3[nH]2)C(c2ccccc2)CN1` (centres unmarked) [Compound 368, 5-phenyl-4-(5-(trifluoromethyl)-1H-benzo[d]imidazol-2-yl)piperazin-2-one], for which the IC50 is above 1000 nM.
With `O=C1CN(c2ccccc2)C(c2nc3cc(C(F)(F)F)ccc3[nH]2)CN1` (centres unmarked) [Compound 369, 4-phenyl-5-(5-(trifluoromethyl)-1H-benzo[d]imidazol-2-yl)piperazin-2-one] the figure was above 1000 nM; with `COCCOc1c(Cl)ccc2[nH]c(-c3nncn3-c3cnccc3C(F)(F)F)nc12` [Compound 371, 5-chloro-4-(2-methoxyethoxy)-2-(4-(4-(trifluoromethyl)pyridin-3-yl)-4H-1,2,4-triazol-3-yl)-1H-benzo[d]imidazole], 100 to 500 nM.
Regarding `[2H]c1cncc(-n2c([2H])nnc2-c2nc3c(F)c(C4([2H])CC4)ccc3[nH]2)c1C(F)(F)F` [Compound 372, 5-(cyclopropyl-1-d)-4-fluoro-2-(4-(4-(trifluoromethyl)pyridin-3-yl-5-d)-4H-1,2,4-triazol-3-yl-5-d)-1H-benzo[d]imidazole], the IC50 is at most 100 nM.
Take `Fc1cc(C23COCC2C3)cc2nc(-c3nncn3-c3cnccc3C(F)(F)F)[nH]c12` (centres unmarked) [Compound 374]: the IC50 is at most 100 nM.
As for `FC(F)(F)c1ccc2[nH]c(-c3nncn3-c3cnccc3C(F)(F)F)c(C3CCNC3)c2c1` (centres unmarked) [Compound 375, 3-(pyrrolidin-3-yl)-5-(trifluoromethyl)-2-(4-(4-(trifluoromethyl)pyridin-3-yl)-4H-1,2,4-triazol-3-yl)-1H-indole], the IC50 lay within 100 to 500 nM.
Turning to `FC(F)(F)c1ccc2[nH]c(-c3nncn3-c3cnccc3C(F)(F)F)c(-c3ccco3)c2c1` [Compound 376, 3-(2-furyl)-5-(trifluoromethyl)-2-[4-[4-(trifluoromethyl)-3-pyridyl]-1,2,4-triazol-3-yl]-1H-indole], the IC50 is at most 100 nM.
Regarding `Cc1cc(-c2cnccc2C(F)(F)F)c(-c2nc3cc(C(F)(F)F)ccc3[nH]2)nn1` [Compound 377, 2-(6-Methyl-4-(4-(trifluoromethyl)pyridin-3-yl)pyridazin-3-yl)-5-(trifluoromethyl)-1H-benzo[d]imidazole], the IC50 was 100 to 500 nM.
In the case of `FC(F)(F)c1ncc2[nH]c(-c3nncn3-c3cnccc3C(F)(F)F)cc2n1` [Compound 378, 2-(trifluoromethyl)-6-(4-(4-(trifluoromethyl)pyridin-3-yl)-4H-1,2,4-triazol-3-yl)-5H-pyrrolo[3,2-d]pyrimidine], the IC50 was above 1000 nM.
As for `CS(=O)(=O)Cc1nnc(-c2cc3cc(C(F)(F)F)ccc3[nH]2)n1-c1cnccc1C(F)(F)F` [Compound 380, 2-(5-((methylsulfonyl)methyl)-4-(4-(trifluoromethyl)pyridin-3-yl)-4H-1,2,4-triazol-3-yl)-5-(trifluoromethyl)-1H-indole], the IC50 was at most 100 nM.
For `Fc1cccc(-n2c(Cn3cccn3)nnc2-c2nc3cc(C(F)(F)F)ccc3[nH]2)c1Cl` [Compound 381, 2-(5-((1H-pyrazol-1-yl)methyl)-4-(2-chloro-3-fluorophenyl)-4H-1,2,4-triazol-3-yl)-5-(trifluoromethyl)-1H-benzo[d]imidazole], the IC50 lay within 100 to 500 nM.

Broadly, the IC50 is the midpoint of a concentration-inhibition curve.
